Test results from PMC12974487, “Inhibition of FicD-mediated AMPylation and deAMPylation by isoprenoid diphosphates” (Proceedings of the National Academy of Sciences of the …, 2026).
Positions count from the first letter of the chain named. “And” between values parts separate entries of the source, which are not always exact repeats. Equal entries are not always repeated. Where two headings read alike, the source gives them in different places.

Tests used:
Assay type in all cases: binding
FicD^L258D [1] = biological target: T1, FicD^L258D (Homo sapiens, UniProt Q9BVA6, L258D); test: Differential scanning fluorimetry (DSF) thermal shift with FicD^L258D; details: for EC50: read-out: EC50 of DSF dose-response (ΔTm)
T1 construct: soluble ER luminal domain (residues 105 to 458) of wild-type human FicD and three mutants; 6xHis-Sumo (N, cleaved yes); made in house; host or cells: Rosetta(DE3) E. coli
T1 sequence (Q9BVA6 105-458 L258D): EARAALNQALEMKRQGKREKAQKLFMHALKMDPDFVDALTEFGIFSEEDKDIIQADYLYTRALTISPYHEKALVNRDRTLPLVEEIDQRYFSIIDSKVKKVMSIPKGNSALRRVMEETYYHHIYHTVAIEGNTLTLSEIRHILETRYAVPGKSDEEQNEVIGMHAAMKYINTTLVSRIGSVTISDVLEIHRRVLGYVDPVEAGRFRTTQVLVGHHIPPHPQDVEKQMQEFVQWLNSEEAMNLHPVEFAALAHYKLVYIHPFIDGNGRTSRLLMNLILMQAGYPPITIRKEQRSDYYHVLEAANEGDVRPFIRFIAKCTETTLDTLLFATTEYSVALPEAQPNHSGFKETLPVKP
Method: Differential Scanning Fluorimetry
Thermal shift assays were performed in Biorad CfX384 Touch Real-Time PCR Detection System […]
Reactions contained 50mM HEPES pH 7.4, 200mM NaCl, 200mM KCl, 200uM DTT, 5X Invitrogen Sypro Orange (Cat no. S6650), 8-9μM protein, and indicated nucleotide, cofactor, or small molecule in a total volume of 20uL. For every experiment ‘no protein’ controls were also included with the same reaction conditions. All reactions were performed in technical triplicates. Sealed plates containing reaction mixes were centrifuged for 1-5 min at 1000 RPM prior to temperature scanning (FRET channel), which was performed from 6°C […]
DSF data was analyzed with traditional methods automated in a Python package (https://pypi.org/project/instawell/). Briefly, for each temperature, the RFU values of technical triplicates are averaged. For each timepoint, the background fluorescence was subtracted using the RFU values of the ‘no protein’ control. […]
calculated. The melting temperature (Tm) is defined as the first derivative peak value. Data

FicD^E234G = biological target: T2, FicD^E234G (Homo sapiens, UniProt Q9BVA6, E234G); test: MIDAS metabolite screen, FicD^E234G; details: cutoff Q < 0.05 and |Log2 corrected fold change| > 2, metabolites 5 µM
T2 construct: soluble ER luminal domain (residues 105 to 458) of wild-type human FicD and three mutants; 6xHis-Sumo (N, cleaved yes); made in house; host or cells: Rosetta(DE3) E. coli
T2 sequence (Q9BVA6 105-458 E234G): T1 sequence (Q9BVA6 105-458 L258D) with E130G, D154L

FicD^WT = biological target: T3, FicD^WT (Homo sapiens, UniProt Q9BVA6); test: MIDAS equilibrium dialysis/mass spectrometry metabolite screen, FicD^WT; details: cutoff Q < 0.05 and |Log2 corrected fold change| > 2, metabolites 5 µM
T3 construct: soluble ER luminal domain (residues 105 to 458) of wild-type human FicD; 6xHis-Sumo (N, cleaved yes); made in house; host or cells: Rosetta(DE3) E. coli
T3 sequence (Q9BVA6 105-458): T1 sequence (Q9BVA6 105-458 L258D) with D154L

FicD^L258D [2] = biological target: T1, FicD^L258D; test: MIDAS metabolite screen, FicD^L258D; details: cutoff Q < 0.05 and |Log2 corrected fold change| > 2, metabolites 5 µM
Source text: To identify small-molecule metabolite interactions with FicD, we applied an unbiased high-throughput screening approach known as MIDAS ([44]). Given the high concentrations of protein required for MIDAS screening, we purified the soluble ER luminal domain (residues 105 to 458) of wild-type human FicD and three mutants FicD^E234G, FicD^L258D, and FicD^H363A for screening (Fig. 1A). These mutants were selected based on their well-established biochemical features ([23], [24], [31]). All three are predicted to enhance detection of protein–metabolite interactions (PMIs) relative to FicD^WT through increased affinity for nucleotide substrates (FicD^E234G), improved solubility (FicD^L258D), and loss of catalytic turnover (FicD^H363A) (Fig. 1A). To decrease the potential for nonspecific small-molecule binding, we ensured the purity of our FicD proteins (SI Appendix, Fig. S1 A and B). As reported by other investigators ([24], [31]), we observe an increase in elution volume of the FicD^L258D mutant, consistent with its monomerization (SI Appendix, Fig. S1C).
Out of the 602 naturally occurring human metabolites in the MIDAS library, we applied a significance cutoff (q value < 0.05) to identify 12 PMIs with a Log2 (corrected fold change) of >2 and two PMIs with a Log2 (corrected fold change) <-2 in the FicD^WT screen (Fig. 1B and SI Appendix, Table S2). Hits were additionally triaged based on detection of multiple adducts of the metabolite in a single dataset (FPP and […] in Fig. 1B) and identification of the same metabolites across three or more of the FicD construct screens (Fig. 1C). Three chemical classes passed this initial triage: adenosine nucleotides, isoprenoid diphosphates, and thyroid hormone intermediates (Fig. 1 B and C and SI Appendix, Tables S2–S5).
22°C. Induced cultures were then harvested by centrifugation at 8000G for 15 minutes at 4°C and […]
Bacterial pellets were resuspended in 30-50mL of 50mM Tris pH 7.4/150mM NaCl/10% glycerol with one Roche cOmplete EDTA-Free Protease inhibitor cocktail tablet (cat no. COEDTAF-RO).
Triton-X100 to a final concentration of 0.2%, Chicken-egg lysozyme to a final concentration of 0.4ug/mL, and 2-5uL of Millipore Benzonase Nuclease (cat no. 70664) were added to bacterial suspension prior to sonication at 40-50% amplitude for 1-3 minutes in pulses of 5 seconds on and 30 seconds off on ice with a Sonics VCX 750 Ultrasonicator. Bacterial lysate was then clarified by centrifugation at 30,000 x g for 30 minutes at 4°C.
Clarified lysate was rotated with Qiagen NiNTA agarose beads (cat no. 30210) for 1-2 hours at 4°C. The beads were then transferred to a 15mL conical vial, resuspended in 10-15mL wash buffer (50mM Tris pH 7.4/150mM NaCl/10% glycerol/0.2% Triton-X 100/10mM imidazole), and spun down at 1000G for 1 minute at 4°C, after which the supernatant was aspirated from the beads. This washing step was repeated 2-4 times to rinse bacterial lysate from the beads prior to on-column washing. The beads were then transferred to BioRad Econopac 20mL bed volume column (cat no.
7321010) and washed with 10-15mL of wash buffer (repeated at least three times), 10mL of ATP wash (50mM Tris pH 7.4/300mM KCl/10mM MgCl2/500uM ATP, repeated once), and finally with 10-15mL wash buffer without Triton-X 100 (repeated at least three times). Protein was eluted in 500μL-1mL elution buffer (50mM Tris pH 7.5/150mM NaCl/10% glycerol/0.5% CHAPS). […]

FicD^L258D [3] = biological target: T1, FicD^L258D; test: Isothermal titration calorimetry (ITC) with Δ104hFicD^L258D; details: 4 mM MgCl2, 20 °C, 1σ error interval in parenthesis
Source text: To further support this notion, we used Isothermal Titration Calorimetry (ITC) to determine the Kd of FPP binding. […] In these experiments, the interaction between FPP and Mg^2+ generated endothermic peaks that interfered with detecting the interaction between FPP, Mg^2+, and FicD (Fig. 3, Upper). The stoichiometry of FPP binding to FicD was consistently <0.85, which may indicate that Mg^2+ was not saturating. Because the endothermic interaction between Mg^2+ and FPP limited the quantity of MgCl2 we could add, the measured Kd could be larger than the true value.
Fig. 3. ITC with FicD and Farnesyl-pyrophosphate. Representative ITC thermogram for FPP binding to Δ104hFicD^L258D (Upper). […] Dissociation constants (Kd) of individual replicates and global fitting of triplicate isotherms are reported with 1σ error intervals in parenthesis. TEXT PRINTED IN THE PICTURE: no label printed: Kd (nM): 32.3 (15.6, 54.9) (Replicate 1); Kd (nM): 25.6 (10.1, 47.7) (Replicate 2); Kd (nM): 45.2 (29.4, 68.8) (Replicate 3); Kd (nM): 60.3 (23.1, 126.3) (Global) DOUBTS OF THE COPYIST ABOUT THIS PICTURE: The picture prints no substance label; the table rows are replicates and a global fit of one measurement, so all four Kd values are given under one unlabeled substance. […]
Isothermal Titration Calorimetry
Proteins were dialyzed against 25mM HEPES pH 7.4/100mM KCl/10% glycerol prior to titration.
Dialyzed proteins were then spun down at 21,000G for 15 minutes at 4C to remove trace insoluble material. The protein concentration was measured spectrophotometrically and then diluted to working concentration with 25mM HEPES pH 7.4/100mM KCl/10% glycerol. MgCl2 was added to proteins to a final concentration of 4mM. ITC experiments were performed in a Micro-Cal PEAQ-ITC (Malvern Panalytical, Worcestershire, UK) calorimeter with a stirred 206.2 μL reaction cell held at 20 °C. 250μM FPP was titrated into 25uM Δ104hFicL258D with 750rpm stirring. The first injection was 0.5 μL, followed by twenty 1.9 μL injections. ITC data were integrated and baseline corrected using NITPIC 2.1.5 (10, 11). Integrated data was globally analyzed in SEDPHAT 15.b (12) using a model considering a single class of binding sites. […]
10% Lithium dodecyl sulfate, 50% glycerol, 50mM DTT, 0.05% Bromophenol blue) and then heated […]
For deAMPylation assays with FicD and BiP, Δ26hBiPT229A was in-vitro AMPylated by […]
5mM MgCl2, 500uM ATP, 0.5% CHAPS, 1mM DTT. After one hour of incubation at 30-37C, the entire reaction mix was transferred into an Amicon 0.5mL 50kDa MWCO concentrator (cat no.
7.4/150mM NaCl/10% glycerol/1mM DTT was added to the concentrated AMPylation reaction and then spun down again at 14,000 x g at 4C for 5-10 minutes. This step was repeated four times to buffer exchange AMPylated Δ26hBiPT229A.
Δ104hFicDWT and Δ26hBiPT229A-AMP were combined at a ratio of 1:80 in buffer containing 25mM HEPES pH 7.4, 100mM KCl, 5mM MgCl2, 1mM DTT and the indicated small molecule where applicable. Reactions were incubated at 37C for 1 hour and stopped by the addition EDTA. 5X SDS sample buffer (250mM Tris pH 6.8, 10% Lithium dodecyl sulfate, 50% glycerol, 50mM DTT, 0.05% Bromophenol blue) was then added to the reactions and reactions were heated for 5 minutes at […]
For in-vitro AMPylation assays with VopS and CDC42, Δ30VopS and GST-CDC42 – provided by a previous lab member – were combined at a 1:80 molar ratio in 50mM Tris pH 7.4/100mM NaCl/1mM DTT in the presence of GPP or FPP, where applicable. […]

| maximal Tm shift at saturating ligand concentration (FicD^L258D [1]; FicD^L258D, 5 mM MgCl2) | EC50 (FicD^L258D [1]; FicD^L258D, 5 mM MgCl2) | binding to FicD^L258D by DSF (FicD^L258D [1]; absence of MgCl2) | binding to FicD^L258D by DSF (FicD^L258D [1]; presence of 5 mM MgCl2) | MIDAS protein-metabolite interaction (enrichment/depletion) (FicD^E234G) | MIDAS protein-metabolite interaction (enrichment/depletion) (FicD^WT) | MIDAS protein-metabolite interaction (enrichment/depletion) (FicD^L258D [2]) | Kd (FicD^L258D [3]; read-out: Kd (ITC), Replicate 1) | Kd (FicD^L258D [3]; read-out: Kd (ITC), Replicate 2) | Kd (FicD^L258D [3]; read-out: Kd (ITC), Replicate 3) | Kd (FicD^L258D [3]; read-out: Kd (ITC), global fitting of triplicate isotherms) | Structure (SMILES) |
| --- | --- | --- | --- | --- | --- | --- | --- | --- | --- | --- | --- |
| ~ 7 °C | 530000 nM | did not bind | binding | significantly enriched | significantly enriched | did not pass the significance cutoff |  |  |  |  | Nc1ncnc2c1ncn2[C@H]1C[C@H](O)[C@@H](COP(=O)(O)OP(=O)(O)OP(=O)(O)O)O1 [dATP] |
|  | 9600 nM |  |  |  |  |  | 32.3 nM | 25.6 nM | 45.2 nM | ~60 nM and 60.3 nM and 60 nM | CC(C)=CCC/C(C)=C/CC/C(C)=C/CO[P@@](=O)(O)OP(=O)(O)O (stereo in doubt) [FPP, farnesyl-pyrophosphate] |
